Experimental data published in patent US10828368B2, “Therapeutic treatments using centhaquin” (MIDWESTERN UNIVERSITY, priority 2009, dated 2020).
Like-named read-outs stand apart in the source and are kept apart here.

How the values were obtained:
norepinephrine release = conditions: centhaquin 0.1, 1.0 and 10.0 μg/ml; cited from earlier work
mice = conditions: intraperitoneal; cited from earlier work
[1] = Arterial blood gas analysis before and one hour after drug; assay type: in vivo, rat; conditions: for changes in arterial blood pH, pO2, pCO2, Na^+, K^+, lactate and hematocrit: before versus one hour after clonidine 90 μg/kg or centhaquin 0.45 mg/kg
Description: Arterial blood pH, pO2, pCO2, Na^+, K^+, and lactate were monitored prior to and after drug administration. Blood samples were drawn from the arterial cannula using blood gas sampling syringes (Innovative Medical Technologies, Inc. Leawood, Kans.) and analyzed using a GEM Premier 3000 unit (Instrument Laboratory, Lexington, Mass.).
Blood samples were drawn from the arterial cannula using blood gas sampling syringes (Innovative Medical Technologies, Inc. Leawood, Kans.) and analyzed using a GEM Premier 3000 unit (Instrument Laboratory, Lexington, Mass.).

[2] = test system: 5-HT1 receptors in the medulla; conditions: cited from earlier work
[3] = once a day for 15 days; cited from earlier work
[4] = test system: urethane anaesthetized rats; assay: Cardiovascular response (MAP, PP, HR) of drugs in urethane anaesthetized rats; assay type: in vivo, rat; conditions: for decrease in MAP / reduction in HR: compared to baseline; for dose-response effect on MAP, PP and HR: clonidine 10, 30, 90 μg/kg i.v., centhaquin 0.05, 0.15, 0.45 mg/kg i.v.
Description: Rats were anaesthetized with urethane (1.5 g/kg i.p.) and prepared for the determination of hemodynamic parameters (Gulati and Srimal, 1993; Gulati et al., 1997b). The anesthetized rats were shaved and immobilized to prepare for cannulation. A 2-3 cm incision was made above the femoral vein and artery, and the vessels were dissected and cleaned. The left femoral vein was cannulated (PE-50 tubing, Clay Adams, Parsipanny, N.J.) and secured for drug administration. An ultra-miniature Pressure transducer SPR-320 (2F Polyurethane), with a single pressure sensor side mounted at the tip (Millar Instruments, Houston, Tex.), was inserted in the left femoral artery to acquire the hemodynamic signals. Pressure transducer was connected to bridge amplifier (ML221 Bridge Amp; AD Instruments, Mountain View, Calif., USA) with Viking connector (AEC-10C) and the signals were continuously acquired at a sampling rate of 1000 S^−1 using Millar PowerLab 16/30 data acquisition system (AD Instruments, Mountain View, Calif., USA). MAP, HR, and PP were determined and analyzed with LabChart-5.00 software program (Millar Instruments). After the experiment was completed, the animals were euthanized with higher dose of urethane (3 gm/kg).
The animals were allowed to stabilize for at least 20 min following surgical procedures.
In the above studies, all drugs were injected through the left femoral vein and changes in MAP, HR, and PP after clonidine and centhaquin injection were recorded for 1 hour using Millar PowerLab 16/30 data acquisition system.

rats [5] = assay: Tail-flick latency analgesia (FIGS. 9-13); assay type: in vivo, rat; conditions: iv
[6] = test system: rats in the hemorrhagic shock model; assay: Hemorrhagic shock model, resuscitation with Ringer's lactate and centhaquin; assay type: in vivo, rat
rats [7] = conditions: cited from earlier work
[8] = test system: α-adrenergic receptors in the hypothalamus and medulla; conditions: chronic administration in rats; with hypotension and bradycardia; cited from earlier work
[9] = one hour after clonidine 90 μg/kg or centhaquin 0.45 mg/kg

Cc1cccc(N2CCN(CCc3ccc4ccccc4n3)CC2)c1 [Centhaquin]
norepinephrine release evoked by potassium chloride and dimethyl phenyl piperazinium chloride (norepinephrine release): inhibited
spontaneous release of norepinephrine (norepinephrine release): initial increase followed by decrease
LD50 (mice): 600 mg/kg
changes in arterial blood pH, pO2, pCO2, Na^+, K^+, lactate and hematocrit [1]: did not affect arterial blood pH, pO2, and pCO2
changes in arterial blood pH, pO2, pCO2, Na^+, K^+, lactate and hematocrit ([1]; listed as centhaquin): no significant changes
Hct [1, 9]: 52 ± 1%
K^+ [1, 9]: 4.0 ± 0.2 mmol/L
Na^+ [1, 9]: 140 ± 1 mmol/L
arterial blood pH [1, 9]: 7.27 ± 0.02
pCO2 [1, 9]: 53 ± 2 mmHg
pO2 [1, 9]: 96 ± 9 mmHg
effect of repeated administration on 5-HT1 receptors in the medulla [2]: up-regulation
potentiation or tolerance on repeated administration [3]: did not produce any potentiation or tolerance
decrease in MAP ([4]; centhaquin 0.05 mg/kg i.v.): 15.64%
reduction in HR ([4]; centhaquin 0.05 mg/kg i.v.): 10.49%
decrease in MAP ([4]; centhaquin 0.15 mg/kg i.v.): 25.15%
reduction in HR ([4]; centhaquin 0.15 mg/kg i.v.): 12.57%
decrease in MAP ([4]; centhaquin 0.45 mg/kg i.v.): 28.08%
reduction in HR ([4]; centhaquin 0.45 mg/kg i.v.): 13.34%
dose-response effect on MAP, PP and HR [4]: dose-dependent fall in MAP, and a decrease in HR
dose-response effect on MAP, PP and HR ([4]; listed as centhaquin): dose-dependent hypotension and bradycardia
analgesic effect relative to 4 mg/kg dose of morphine (rats [5]; centhaquin 0.3 mg/kg): comparable
analgesic effect relative to 4 mg/kg dose of morphine (rats [5]; centhaquin 0.9 mg/kg): significantly greater
analgesia (tail-flick latency) (rats [5]; centhaquin 0.1, 0.3 and 0.9 mg/kg): dose-dependent analgesia
effect on morphine analgesia (rats [5]; centhaquin 0.3 and 0.9 mg/kg): potentiated
pressure-volume loops ([6]; LR-100 and centhaquin 0.05 mg/kg compared with LR-100): improvement
blood lactate, comparison of centhaquin doses ([6]; centhaquin 0.05-0.45 mg/kg): lower doses of centhaquin were more effective than the higher doses
blood lactate ([6]; centhaquin 0.05-0.45 mg/kg with Ringer's lactate): drop in lactate
survival time ([6]; centhaquin administered with LR-100): increase in survival time
effect on MAP and HR (rats [7]; centhaquin 0.05 to 0.2 mg/kg, iv, urethane anesthetized rats): dose-dependent decrease
effect on MAP or HR (rats [7]; cervical sectioned rats, intravenously administered): did not produce any effect
effect on MAP or HR (rats [7]; intrathecal administration): did not produce any effect
effect of chronic administration on α-adrenergic receptors in the hypothalamus and medulla [8]: up-regulation
